Measurements as given in PMC5445929 (Journal of fluorine chemistry, 2016).
Where two headings read alike, the source gives them in different places.

Columns and labels:
[1] = metabolic stability against liver microsomes; format: in vitro ADME; details: 4 h at 37 °C, LC–MS/MS
M. tuberculosis H37Rv = details: cited from earlier work
[2] = metabolic stability against liver microsomes; format: in vitro ADME; details: 4 h at 37 °C, LC–MS/MS; remark: listed apart in the source
[3] = metabolic stability against liver microsomes; format: in vitro ADME, mouse; details: murine microsomes, 4 h at 37 °C, LC–MS/MS
M. tuberculosis Erdman = details: cited from earlier work

2-cyclohexyl-5-dimethylamino-6-(4-trifluorimethoxy)benzamido-1,3-benzoxazole [Compound 12]
% metabolic clearance human [1]: 56% | MIC (μg/mL) H37Rv (M. tuberculosis H37Rv): 6.25 µg/mL | % metabolic clearance rat [2]: 22% | % metabolic clearance mouse [3]: 71%

NNC(=O)c1ccncc1 [INH, isoniazid]
log10 CFU Spleen (M. tuberculosis Erdman; route IP): 0 ± 0 n = 5 log10 CFU | Δ log10 CFU Lungs (test vs control group means) (M. tuberculosis Erdman; route IP): −6.57 log10 CFU | Δ log10 CFU Spleen (test vs control group means) (M. tuberculosis Erdman; route IP): −4.96 log10 CFU | log10 CFU Spleen (M. tuberculosis Erdman; route PO): 0 ± 0 n = 5 log10 CFU | Δ log10 CFU Lungs (test vs control group means) (M. tuberculosis Erdman; route PO): −6.31 log10 CFU | Δ log10 CFU Spleen (test vs control group means) (M. tuberculosis Erdman; route PO): −3.89 log10 CFU | log10 CFU Lungs (M. tuberculosis Erdman; route PO, test compounds 50 mg/kg b.i.d., day 5-15 post infection): 0 ± 0 n = 5 log10 CFU
